Laboratory results taken from patent US20160313301A1, “METHOD FOR PREDICTING ANTITUMOR EFFICACY OF HSP90 INHIBITOR IN CANCER TREATMENT” (NIPPON KAYAKU KABUSHIKI KAISHA, priority 2013, published 2016).

Assays:
Format in all cases: in vivo
[1] = system: human ovarian cancer cell line ES-2; assay: Anti-tumor test in mice transplanted subcutaneously with tumor (ES-2); settings: ES-2 s.c. in mice
Procedure: (§1) Human ovarian cancer cell lines OC-10-JCK, OC-11-JCK, and TOGY-18, and a human breast cancer cell line MC-19-JCK were obtained from Central Institute for Experimental Animals. Cryopreserved tumor pieces were thawed, and then OC-10-JCK, OC-11-JCK, and MC-19-JCK were transplanted subcutaneously to SCID mice, while TOGY-18 was transplanted subcutaneously to nude mice. After the tumors were grown, the tumors were removed and cut into tumor pieces. The tumor pieces were transplanted subcutaneously to SCID mice or nude mice with trocars. The tumors were maintained by repeated transplantation in the same manner as described above to prepare tumors to be transplanted. Human ovarian cancer cell lines ES-2, SK-OV-3, OV-90, and TOV-21G, and a human lung cancer cell line NCI-H1975 were obtained from American Type Culture Collection (ATCC). The SK-OV-3 and NCI-H1975 cell lines were grown in recommended culture media, of which about 1×10^7 cells were suspended into HBSS and then injected subcutaneously to SCID mice. After the cells formed tumors, the tumors were removed and cut into tumor pieces. The tumor pieces were transplanted subcutaneously to SCID mice with trocars. The tumors were maintained by repeated transplantation in the same manner as described above to prepare tumors to be transplanted. […]

[2] = system: human ovarian cancer cells OC-11-JCK/CDDP; assay: Anti-tumor test in mice transplanted subcutaneously with tumor (OC-11-JCK/CDDP); settings: OC-11-JCK/CDDP s.c. in mice; 40 mg/kg tail vein three times at 4 day intervals
Procedure: as §1

[3] = system: human breast cancer cells MC-19-JCK; assay: Anti-tumor test in mice transplanted subcutaneously with tumor (MC-19-JCK); settings: MC-19-JCK s.c. in mice; administered once at 40 mg/kg
Procedure: as §1

[4] = system: human breast cancer cells JIMT-1; assay: Anti-tumor test in mice transplanted subcutaneously with tumor (JIMT-1); settings: JIMT-1 s.c. in mice; 40 mg/kg three times at 7 day intervals
Procedure: as §1

[5] = system: human lung cancer cells NCI-H1975; assay: Anti-tumor test in mice transplanted subcutaneously with tumor (NCI-H1975); settings: NCI-H1975 s.c. in mice; 40 mg/kg three times at 7 day intervals
Procedure: as §1

CC(C)c1cc(-c2n[nH]c(=O)n2-c2ccc(CN3CCN(C)CC3)cc2)c(O)cc1O [A-1, 5-(2,4-dihydroxy-5-isopropyl-phenyl)-4-[4-(4-methyl-piperazin-1-ylmethyl)-phenyl]-2,4-dihydro-[1,2,4]triazol-3-one]
anti-tumor effect (in words) [1]: relatively highly effective | T/C % (lowest value from the beginning to the 21st day of administration) ([1]; 40 mg/kg tail vein three times at 4 day intervals): 25.6% | T/C % (lowest value from the beginning to the 21st day of administration) [2]: 46.4% | T/C % (lowest value from the beginning to the 21st day of administration) [3]: 5.2% | T/C % (lowest value from the beginning to the 21st day of administration) [4]: 34.9% | T/C % (lowest value from the beginning to the 21st day of administration) [5]: 49.4%
